Experimental data from patent US10188648B2, “Solid state forms of selexipag” (TEVA PHARMACEUTICALS INTERNATIONAL GMBH, priority 2015, dated 2019).

Assay: solubility in aqueous medium at pH=6.7
Format: physicochemical

| Compound | solubility in aqueous medium in comparison with Form I of U.S. Pat. No. 8,791,122 (comparison with Form I) | solubility in aqueous medium |
| --- | --- | --- |
| CC(C)N(CCCCOCC(=O)NS(C)(=O)=O)c1cnc(-c2ccccc2)c(-c2ccccc2)n1 [Form IV of Selexipag, 2-{4-[(5,6-diphenylpyrazin-2-yl)(isopropyl)amino]butoxy}-N-(methylsulfonyl)acetamide] | enhanced solubility | – |
| CC(C)N(CCCCOCC(=O)NS(C)(=O)=O)c1cnc(-c2ccccc2)c(-c2ccccc2)n1 [Selexipag Form I, 2-{4-[(5,6-diphenylpyrazin-2-yl)(isopropyl)amino]butoxy}-N-(methylsulfonyl)acetamide] | – | practically insoluble |
